Laboratory results taken from patent publication US7329681B2, “Inhibitors of IMPDH enzyme” (Vertex Pharmaceuticals Incorporated, priority 1996, dated 2008).

Target: IMPDH human type II (Homo sapiens, UniProt P12268)
Assay: IMPDH activity inhibition assay (spectrophotometric, NADH formation at 340 nm)
Format: biochemical
Settings: IMPDH human type II, 15 to 50 nM enzyme, 37° C., tight-binding fit (Henderson); read-out: Ki
Experimental: We have measured the inhibition constants of each compound against IMPDH using an adaptation of the method first reported by […]. Moyed, and […]. Biol. Chem., 226, p. 339 (1957)]. We measured the inhibition constants of the compounds listed in Table III utilizing the following protocol: IMP dehydrogenase activity was assayed following an adaptation of the method first reported by […]. Moyed, H. S. and […]. Biol. Chem. 226, 339]. Enzyme activity was measured spectrophotometrically, by monitoring the increase in absorbance at 340 nm due to the formation of NADH (ε340 is 6220 M^-1 cm^-1). The reaction mixture contained 0.1 M Tris pH 8.0, 0.1 M KCl, 3 mM EDTA, 2 mM DTT, […] and enzyme (IMPDH human type II) at a concentration of 15 to 50 nM. This solution is incubated at 37° C. for 10 minutes. The reaction is started by adding NAD to a final concentration of 0.1 M and the initial rate is measured by following the linear increase in absorbance at 340 nm for 10 minutes. For reading in a standard spectrophotometer (path length 1 cm) the final volume in the cuvette is 1.0 ml. The assay has also been adapted to a 96 well microtiter plate format; in this case the concentrations of all the reagents remain the same and the final volume is decreased to 200 μl. For the analysis of inhibitors, the compound in question is dissolved in DMSO to a final concentration of 20 mM and added to the initial assay mixture for preincubation with the enzyme at a final volume of 2-5% (v/v). The reaction is started by the addition of NAD, and the initial rates measured as above. […] The designation “ND” is used where a given compound was not tested.

Ki [µM]	SMILES
1e-05 to 0.05	COc1cc(NC(=O)Nc2cccc(CNC(=O)OC3CCCCO3)c2)ccc1-c1cnco1 (racemic) [Compound 142]
1 to 10	O=C(NCc1ccccc1)Nc1ccc(-c2cnco2)cc1 [Compound 1]
0.051 to 1	O=C(Nc1ccc(-c2cnco2)cc1)Nc1ccsc1 [Compound 3]
> 10	O=C(Nc1ccc(-c2cnco2)cc1)Nc1ccc(F)c(F)c1 [Compound 4]
1 to 10	CSc1cccc(NC(=O)Nc2ccc(-c3cnco3)cc2)c1 [Compound 6]
0.051 to 1	O=C(Nc1ccc(-c2cnco2)cc1)Nc1cccc(Br)c1 [Compound 7]
1 to 10	N#Cc1cccc(NC(=O)Nc2ccc(-c3cnco3)cc2)c1 [Compound 8]
1 to 10	O=C(Nc1ccc(-c2cnco2)cc1)Nc1ccc(Cl)c(C(F)(F)F)c1 [Compound 9]
1 to 10	Cc1c(Cl)cccc1NC(=O)Nc1ccc(-c2cnco2)cc1 [Compound 10]
1 to 10	COc1ccc(C)cc1NC(=O)Nc1ccc(-c2cnco2)cc1 [Compound 11]
1 to 10	COc1ccccc1NC(=O)Nc1ccc(-c2cnco2)cc1 [Compound 12]
1 to 10	COc1cccc(NC(=O)Nc2ccc(-c3cnco3)cc2)c1 [Compound 13]
1 to 10	COc1ccc(OC)c(NC(=O)Nc2ccc(-c3cnco3)cc2)c1 [Compound 14]
1 to 10	O=C(Nc1ccc(-c2cnco2)cc1)Nc1cccc([N+](=O)[O-])c1 [Compound 15]
1 to 10	O=C(Nc1ccc(-c2cnco2)cc1)Nc1ccc([N+](=O)[O-])cc1 [Compound 16]
0.051 to 1	Cc1cccc(NC(=O)Nc2ccc(-c3cnco3)cc2)c1 [Compound 17]
1 to 10	O=C(Nc1ccc(-c2cnco2)cc1)Nc1cccc(C(F)(F)F)c1 [Compound 18]
1 to 10	O=C(Nc1ccc(-c2cnco2)cc1)Nc1ccccc1C(F)(F)F [Compound 19]
1 to 10	O=C(Nc1ccc(Oc2ccccc2)cc1)Nc1ccc(-c2cnco2)cc1 [Compound 21]
1 to 10	O=C(Nc1ccc(-c2cnco2)cc1)Nc1cccc(Cl)c1 [Compound 22]
1 to 10	O=C(Nc1ccc(-c2cnco2)cc1)Nc1ccc(F)c(Cl)c1 [Compound 23]

Ki [µM]	SMILES
0.051 to 1	Nc1cccc(NC(=O)Nc2ccc(-c3cnco3)cc2)c1 [Compound 24]
1 to 10	O=C(Nc1ccc(-c2cnco2)cc1)Nc1cccc(CO)c1 [Compound 25]
1 to 10	C#Cc1cccc(NC(=O)Nc2ccc(-c3cnco3)cc2)c1 [Compound 26]
1 to 10	O=C(Nc1ccc(-c2cnco2)cc1)Nc1cccc(O)c1 [Compound 27]
1 to 10	COc1ccc(NC(=O)Nc2cccc(C)c2)cc1OC [Compound 28]
> 10	O=C(Nc1ccc(-c2cnco2)cc1)Nc1cccnc1 [Compound 29]
1 to 10	O=C(Nc1ccncc1)Nc1ccc(-c2cnco2)cc1 [Compound 30]
> 10	Cc1cnc(NC(=O)Nc2ccc(-c3cnco3)cc2)s1 [Compound 31]
> 10	Cc1cccc(NC(=O)Nc2cccc([N+](=O)[O-])c2)c1 [Compound 32]
> 10	Cc1cccc(NC(=O)Nc2ccc(C#N)cc2)c1 [Compound 33]
1 to 10	COc1ccc(NC(=O)Nc2cccc(Br)c2)cc1OC [Compound 34]
1 to 10	COc1ccc(Cl)cc1NC(=O)Nc1ccc(OC)c(OC)c1 [Compound 35]
1 to 10	COc1ccc(NC(=O)Nc2cccc(F)c2)cc1OC [Compound 36]
1 to 10	CCc1cccc(NC(=O)Nc2ccc(OC)c(OC)c2)c1 [Compound 37]
> 10	COc1ccc(NC(=O)Nc2cccc(SC)c2)cc1OC [Compound 38]
> 10	O=C(Nc1ccc(-c2cnco2)cc1)Nc1ccc2c(c1)OCCO2 [Compound 39]
1 to 10	Cc1cc(NC(=O)Nc2ccc(-c3cnco3)cc2)ccc1[N+](=O)[O-] [Compound 40]
0.051 to 1	O=C(Nc1ccccc1)Nc1ccc(-c2cnco2)c(Cl)c1 [Compound 42]
0.051 to 1	Cc1cccc(NC(=O)Nc2ccc(-c3cnco3)c(Cl)c2)c1 [Compound 43]
1 to 10	O=C(Nc1ccccc1)Nc1ccc(-c2cnco2)c(F)c1 [Compound 45]
0.051 to 1	Cc1cccc(NC(=O)Nc2ccc(-c3cnco3)c(F)c2)c1 [Compound 46]

Ki [µM]	SMILES
0.051 to 1	COC(=O)Cc1cccc(NC(=O)Nc2ccc(-c3cnco3)cc2)c1 [Compound 47]
1 to 10	CN(C)c1cccc(NC(=O)Nc2ccc(-c3cnco3)cc2)c1 [Compound 49]
> 10	CC1(c2cccc(NC(=O)Nc3ccc(-c4cnco4)cc3)c2)OCCO1 [Compound 50]
> 10	NC(=O)c1cccc(NC(=O)Nc2ccc(-c3cnco3)cc2)c1 [Compound 51]
1 to 10	COc1ccc(NC(=O)Nc2cccc([N+](=O)[O-])c2)cc1Cl [Compound 52]
1 to 10	O=C(Nc1ccc(-c2cnco2)cc1)Nc1cccc(-c2ccoc2)c1 [Compound 53]
1 to 10	O=C(O)Cc1cccc(NC(=O)Nc2ccc(-c3cnco3)cc2)c1 [Compound 54]
1e-05 to 0.05	COc1cc(NC(=O)Nc2cccc(C)c2)ccc1-c1cnco1 [Compound 55]
0.051 to 1	COC(=O)Cc1cccc(NC(=O)Nc2ccc(-c3cnco3)c(Cl)c2)c1 [Compound 57]
1 to 10	Cc1cc(N)cc(NC(=O)Nc2ccc(-c3cnco3)cc2)c1 [Compound 58]
1e-05 to 0.05	COc1cc(NC(=O)Nc2cccc(N)c2)ccc1-c1cnco1 [Compound 59]
0.051 to 1	Cc1cccc(NC(=O)Nc2ccc(-c3cnco3)c(Br)c2)c1 [Compound 60]
> 10	O=C(Nc1ccc(-c2cnco2)c(Cl)c1)Nc1ccc(-c2cnco2)c(Cl)c1 [Compound 61]
1 to 10	Cc1cc(NC(=O)Nc2ccc(-c3cnco3)c(Cl)c2)ccn1 [Compound 62]
1 to 10	O=C(O)Cc1cccc(NC(=O)Nc2ccc(-c3cnco3)c(Cl)c2)c1 [Compound 63]
0.051 to 1	O=C(Nc1cccc([N+](=O)[O-])c1)Nc1ccc(-c2cnco2)c(Br)c1 [Compound 64]
0.051 to 1	Nc1cccc(NC(=O)Nc2ccc(-c3cnco3)c(Br)c2)c1 [Compound 65]
1 to 10	Cc1ncc(-c2cccc(NC(=O)Nc3ccc(-c4cnco4)cc3)c2)cn1 [Compound 66]
1 to 10	O=C(Nc1ccc(-c2cnco2)cc1)Nc1cccc(-c2cnco2)c1 [Compound 67]
0.051 to 1	O=C(Nc1ccc(-c2cnco2)c(Cl)c1)Nc1cccs1 [Compound 68]
0.051 to 1	O=C(Nc1ccsc1)Nc1ccc(-c2cnco2)c(Cl)c1 [Compound 69]

Ki [µM]	SMILES
1 to 10	COC(=O)Nc1cccc(NC(=O)Nc2ccc(-c3cnco3)c(Cl)c2)c1 [Compound 71]
1 to 10	CC(=O)Nc1cccc(NC(=O)Nc2ccc(-c3cnco3)c(Cl)c2)c1 [Compound 72]
0.051 to 1	O=C(Nc1cccc(I)c1)Nc1ccc(-c2cnco2)c(Cl)c1 [Compound 73]
0.051 to 1	Cc1cc(NC(=O)Nc2ccccc2)ccc1-c1cnco1 [Compound 74]
0.051 to 1	Cc1cccc(NC(=O)Nc2ccc(-c3cnco3)c(C)c2)c1 [Compound 75]
1 to 10	Cc1cccc(NC(=O)Nc2ccc(-c3ocnc3C)c(Cl)c2)c1 [Compound 76]
0.051 to 1	Cc1cccc(NC(=O)Nc2ccc(-c3ocnc3C)cc2)c1 [Compound 77]
0.051 to 1	O=C(Nc1cccc([N+](=O)[O-])c1)Nc1ccc(-c2cnco2)c(Cl)c1 [Compound 78]
0.051 to 1	Nc1cccc(NC(=O)Nc2ccc(-c3cnco3)c(Cl)c2)c1 [Compound 79]
1 to 10	O=C(Nc1ccc(-c2cnco2)cc1)Nc1cccc(S(=O)(=O)NC2CCCCC2)c1 [Compound 80]
1 to 10	CNS(=O)(=O)c1cccc(NC(=O)Nc2ccc(-c3cnco3)cc2)c1 [Compound 81]
1 to 10	O=C(Nc1ccc(-c2cnco2)cc1)Nc1cccc(S(=O)(=O)Nc2ccccc2)c1 [Compound 82]
0.051 to 1	COc1cc(NC(=O)Nc2cccc(NC(=O)OCc3ccccc3)c2)ccc1-c1cnco1 [Compound 83]
0.051 to 1	COc1cc(NC(=O)Nc2cccc(NC(C)=O)c2)ccc1-c1cnco1 [Compound 84]
1 to 10	Cc1ccc(NC(=O)Nc2ccc(-c3cnco3)c(Cl)c2)s1 [Compound 86]
1 to 10	COC(=O)c1cc(NC(=O)Nc2cccc(C)c2)ccc1-c1cnco1 [Compound 88]
1 to 10	COC(=O)c1cc(NC(=O)Nc2cccc([N+](=O)[O-])c2)ccc1-c1cnco1 [Compound 89]
1 to 10	COc1ccc(NC(=O)Nc2cccc(C)c2)cc1CO [Compound 90]
1e-05 to 0.05	CN(C(=O)C(F)(F)F)c1cccc(NC(=O)Nc2ccc(-c3cnco3)c(Cl)c2)c1 [Compound 93]

SMILES	Ki [µM]
O=C(Nc1ccc(-c2cnco2)cc1)Nc1cccc(F)c1 [Compound 20]	1 to 10
O=C(Nc1ccc(-c2cnco2)cc1)Nc1ccc([N+](=O)[O-])c(C(F)(F)F)c1 [Compound 41]	1 to 10
Cc1cccc(NC(=O)Nc2ccc(C#N)c(Cl)c2)c1 [Compound 70]	1 to 10
